The values below come from article PMC8899577, “Targeting the anti-apoptotic Bcl-2 family proteins: machine learning virtual screening and biological evaluation of new small molecules” (Theranostics, 2022).

For one series, the system named is H1299 cells. Nature of the series: Clonogenic assay, H1299. The following applies: 20 µM for 72 h, respect to controls. Format: cell-based, Human. As for the experimental part: (§1) The effect of compounds on cell viability was performed by measuring 3-[4,5-dimethylthiazol-2-yl]-2,5-diphenyltetrazolium bromide inner salt (MTT, Sigma-Aldrich) dye absorbance (solid tumor cells) or by quantization of ATP present in metabolically active cells using CellTiter-Glo® Luminescent (Promega, Fitchburg, Wisconsin, USA) (hematologic cells) following manifacturer's protocol. To evaluate the cell colony-forming ability, cell suspension from different samples was seeded into 60-mm Petri dishes. After 10 days, colonies were stained with 2% methylene blue in 95% ethanol and counted (1 colony > 50 cells). The surviving fractions were calculated as the ratio of absolute survival of the treated sample/survival of DMSO-treated control sample.
Figure 4 Analysis of the effect of IS20 and IS21 on cell viability, clonogenic ability and tumor sphere formation in cancer cells. […] (B) Representative images and quantification of clonogenic ability evaluated in M14 and H1299 cells treated with IS20 or IS21 (20 μM for 72 h). […] (C) Quantification of tumor sphere formation of M14 and H1299 cells treated with IS20 or IS21 (20 μM for 72 h). […] (A-C) Data are reported as mean ± SD of three independent experiments. p-values were calculated between control (Ctrl) and treated cells, ** p < 0.001 and *** p < 0.0001.

The next series has as its system U937 cells. Briefly: Western blot of PARP1 cleavage, U937. Type of series: cell-based, Human. The following applies: 20 µM for 24 h. On the procedure:
Western blot analyses of total protein extracts were performed as previously described. Immunodetection was performed using antibodies directed to poly (ADP-ribose) polymerase (PARP; BD Biosciences San Diego, CA, USA), LC3B (Cell Signaling Technology, Danvers, MA), HSP72/73 (Calbiochem, EMD Biosciences, La Jolla, CA), Bcl-2 (SC-509, Santa Cruz Biotechnology Inc, Dallas, TX, USA), Bcl-xL (SC-271121, Santa Cruz Biotechnology Inc), Mcl-1 (SC-12756, Santa Cruz Biotechnology Inc) α-tubulin (Santa Cruz Biotechnology Inc) actin (Sigma-Aldrich, St. Louis, Missouri, USA). Anti-rabbit or anti-mouse immunoglobulin G-horseradish peroxidase-conjugated antibodies (Amersham Biosciences, Freiburg, Germany) were used as secondary antibody. Images were acquired by Image Lab Software (Bio-Rad, Hercules, CA, USA), using a ChemiDoc System instrument (Bio-Rad). […]
Figure 5 Analysis of apoptosis induction by IS20 and IS21 in leukemia, melanoma and NSCLC cells. […] (G) Flow cytometric quantification of cells in the subG1 peak of cell cycle distribution by propidium iodide staining in HL60 cell line treated with IS20 or IS21 (20 μM for 24 h) and in M14, H1299 and MDA-MB-231 cell lines treated with IS20 or IS21 (20 μM for 72 h). Data are reported as mean ± SD of three independent experiments. p-values were calculated between control (Ctrl) and treated cells, * p < 0.05. […]
Background: Immunoblotting shows a protein as a band on a membrane.

For a further series, the system named is normal human fibroblasts. Nature of the series: Viability of normal fibroblasts. Type of series: cell-based. The following applies: data not shown.
The subject of the next series is M14 melanoma cells. Nature of the series: Cell viability by MTT, M14. Type of series: cell-based, Human. The following applies: for cell viability M14: 20 µM for 72 h, vs control; for IC50: Homo sapiens, M14, 72 h, MTT. As for the experimental part: as §1
Figure 1 Cytotoxic screening of putative inhibitors of Bcl-2 anti-apoptotic proteins. (A) Flow cytometric quantification of propidium iodide exclusion assay in HL60 cells treated with the 49 putative Bcl-2 family inhibitors (50 μM, 72 h). (B) Analysis of cell viability by CellTiterGlo assay in HL60 cells treated for 24 h with concentrations ranging from 5 to 50 μM of the indicated compounds. (C-D) Analysis of cell viability by MTT assay in (C) M14 and (D) Sbcl2 melanoma cell lines treated for 72 h with concentrations ranging from 5 to 50 μM of the indicated compounds. (A-D) The results are reported as “viability of treated cells/viability of control cells (Ctrl)” × 100. Data are reported as mean of two (HL60) or three (M14 and Sbcl2) experiments ± SEM.
Figure 4 Analysis of the effect of IS20 and IS21 on cell viability, clonogenic ability and tumor sphere formation in cancer cells. (A) Analysis of cell viability by MTT assay in M14, H1299, HCT116 and MDA-MB-231 cell lines treated with IS20 or IS21 (20 μM for 72 h). The results are reported as “viability of treated cells/viability of control cells (Ctrl)” × 100. (B) Representative images and quantification of clonogenic ability evaluated in M14 and H1299 cells treated with IS20 or IS21 (20 μM for 72 h). Results are reported as percentage of clonogenicity of treated versus control cells. (C) Quantification of tumor sphere formation of M14 and H1299 cells treated with IS20 or IS21 (20 μM for 72 h). Results are reported as percentage of tumor sphere formation of treated versus control. (A-C) Data are reported as mean ± SD of three independent experiments. p-values were calculated between control (Ctrl) and treated cells, ** p < 0.001 and *** p < 0.0001.

The subject of a further series is HL60 cells. Briefly: Cell viability by CellTiterGlo, HL60. The conditions noted are these: Homo sapiens, HL-60; 24 h, 5 to 50 µM. Type of series: cell-based. As for the experimental part: as §1
Figure 1 Cytotoxic screening of putative inhibitors of Bcl-2 anti-apoptotic proteins. (A) Flow cytometric quantification of propidium iodide exclusion assay in HL60 cells treated with the 49 putative Bcl-2 family inhibitors (50 μM, 72 h). (B) Analysis of cell viability by CellTiterGlo assay in HL60 cells treated for 24 h with concentrations ranging from 5 to 50 μM of the indicated compounds. (C-D) Analysis of cell viability by MTT assay in (C) M14 and (D) Sbcl2 melanoma cell lines treated for 72 h with concentrations ranging from 5 to 50 μM of the indicated compounds. […]
Background: In ATP-based viability assays light output follows the ATP content of the culture.

The IC50 is the concentration that gives 50% inhibition. `CCCCOc1ccc(C2/C(=C(\O)c3ccc4c(c3)CC(C)O4)C(=O)C(=O)N2c2nnc(SCc3ccc(Cl)cc3)s2)cc1OCC` (stereo not drawn) [IS20]: the “decrease of cell colony formation, H1299” value with H1299 cells is listed as 80-90%. For the same compound, the “PARP1 cleavage, U937” value with U937 cells is reported as “cleavage of PARP1”. For the same compound, in the series on normal human fibroblasts, the “effect on normal human fibroblasts viability” value is recorded as “no significant effect”. Moreover, in the series on M14 melanoma cells, the “cell viability M14” value is “significant inhibition” and the IC50 amounted to 19.8 µM. This compound also came in with an IC50 in the series on HL60 cells of 10.9 to 34 µM.
Turning to `CCCCCOc1ccc(C2/C(=C(\O)c3ccc4c(c3)CC(C)O4)C(=O)C(=O)N2c2nnc(SCc3ccc(Cl)cc3)s2)cc1OCC` (stereo not drawn) [IS21], the “decrease of cell colony formation, H1299” value in the series on H1299 cells is given as 80-90%. The “PARP1 cleavage, U937” value with U937 cells was “cleavage of PARP1”. Moreover, in the series on normal human fibroblasts, the “effect on normal human fibroblasts viability” value is listed as “no significant effect”. Moreover, in the series on M14 melanoma cells, the “cell viability M14” value was “significant inhibition” and half-maximal inhibition (IC50) required 16.7 µM. This compound also came in with an IC50 in the series on HL60 cells of 10.9 to 34 µM.
